Measured values from patent publication US8071535B2, “Guanidinium derivatives for improved cellular transport” (The Regents of the University of California, priority 2003, dated 2011).
Marks after values point to notes of the source that are not given here.

Assays:
10T½ cells [1] = assay: Cellular uptake by FACS, 10T½ cells; assay type: cell-based, mouse; conditions: for Enhancement of cellular uptake upon guanidinylation: relative to autofluorescence, guanidinoglycoside-BODIPY vs aminoglycoside-BODIPY; for Mean Fluorescence Intensities of Treated Cells According to FACS, 10T1/2: 0.5 μM of each compound for 1 hr, average intensity of 10,000 individual cells; for Cellular uptake / transport efficiency compared to poly-Arg peptide BODIPY-Cys(Arg)9 (5) / Cellular uptake (in words): FACS; for Cellular uptake / transport efficiency compared to poly-Arg peptide BODIPY-Cys(Arg)9 (5): in words; for Cellular uptake (in words): slightly above the autofluorescence of the cell itself
Procedure: (§1) 10T½ cells, an adherent non-transformed mouse fibroblast cell line, were purchased from ATCC and used before their 20th passage. HeLa cells, a common human cancer cell line, were a gift from Dr. Susan S. Taylor. Both cell lines were cultured in Dulbecco's modified eagle medium containing 10% fetal bovine serum at 37° C. in an 8% CO2 environment. For each experiment, cells were seeded onto 4 cm tissue culture plates (Nunc) and allowed to grow overnight to […].
(§2) Compounds 1-5 identified in Table 1, below (0.5-1 μM), were added to each dish and incubated at 37° C./8% CO2 for 0.5-1 hr. Cells were then washed once in PBS, trypsinized with 500 μl ATV solution (Gibco) for 3 minutes, pelleted in a fixed angle centrifuge for 5 minutes at 5,000×G, then brought up in 1 mL PBS. Each sample was quickly (within 5 minutes) analyzed on a FACS VantageSE cell sorter (Becton-Dickinson) using the 488 nm argon/krypton laser line and a 530 nm band pass emission filter. 2,000-10,000 cells were counted per sample.
(§3) Examples of FACS histograms are presented in FIG. 3, which illustrates the fluorescence intensity versus cell count for 10,000 individual 10T½ cells following a 1 hour incubation with 0.5 μM of: (A) tobra-BODIPY (Red) and guanidine-tobra-BODIPY (White); (B) neo-BODIPY (Red) and guanidine-neo-BODIPY (White); (C) BODIPY-Cys(Arg)9 (Red), or guanidine-neo-BODIPY (White); and (D) uptake of BODIPY-Cys(Arg)9 inhibited by guanidine-neomycin B (6) at 0 μM (Red), 10 μM (Black), 200 μM (Green).
(§4) In a typical experiment, cell cultures were treated with 0.5-5 μM of each compound for 0.5-1 hr, washed twice with buffer, cleaved with trypsin, and quantified for fluorescence at 530 nm.

HeLa cells [2] = assay: Cellular uptake by FACS, HeLa cells; assay type: cell-based, human; conditions: 1 μM of each compound for 0.5 hr; average intensity of 2,000 individual cells; about 10-fold higher instrumental gain than 10T1/2
Procedure: as §1, §2, §4

10T½ cells [3] = assay: Competition experiment: uptake of BODIPY-Cys(Arg)9 in presence of unlabeled guanidino-neomycin B (6), FACS; assay type: cell-based, mouse
Procedure: as §2, §3

[4] = tested on: Rev-Response-Element (RRE); conditions: in words; cited from earlier work
HeLa cells [5] = assay: Scanning confocal fluorescence microscopy, cellular localization; assay type: cell-based, human; conditions: confocal cross sections of living cells; 5 μM, 30 minute treatment
Procedure: The uptake of BODIPY-containing glycosides by two different eukaryotic cell lines was also studied using fluorescence microscopy.
as §4
(A) and (B) show cross-sectional images of two individual HeLa cells in solution following a 30 minute treatment with 5 μM of guanidine-neo-BODIPY and cleavage with trypsin.
Microscopy experiments have been conducted using both fluorescein-labeled and BODIPY-labeled guanidinoglycosides. The relative intensities of individual cells, following treatment with either fluorescent aminoglycosides or guanidinoglycosides are consistent with the trends from FACS experiments.

NC[C@H]1O[C@H](O[C@H]2[C@H](O)[C@@H](O[C@H]3O[C@H](CO)[C@@H](O)[C@H](N)[C@H]3O)[C@H](N)C[C@@H]2N)[C@H](N)C[C@@H]1O [tobramycin, reference compound]
Enhancement of cellular uptake upon guanidinylation (10T½ cells [1]): approximately 10 fold

guainidino-tobra-BODIPY hydrochloride [Guanidino-Tobra-BODIPY (2)]
Mean Fluorescence Intensities of Treated Cells According to FACS, 10T1/2 (10T½ cells [1]): 240
Cellular uptake / transport efficiency compared to poly-Arg peptide BODIPY-Cys(Arg)9 (5) (10T½ cells [1]): approximately the same transport efficiency
Mean Fluorescence Intensities of Treated Cells According to FACS, HeLa (HeLa cells [2]): 2,100

neo-BODIPY hydrochloride [Neo-BODIPY (3)]
Mean Fluorescence Intensities of Treated Cells According to FACS, 10T1/2 (10T½ cells [1]): 60
Cellular uptake (in words) (10T½ cells [1]): poor cellular uptakes
Mean Fluorescence Intensities of Treated Cells According to FACS, HeLa (HeLa cells [2]): ~1,400^(e)

NC[C@@H]1O[C@H](O[C@H]2[C@@H](O)[C@H](O[C@@H]3[C@@H](O)[C@H](N)C[C@H](N)[C@H]3O[C@H]3O[C@H](CN)[C@@H](O)[C@H](O)[C@H]3N)O[C@@H]2CO)[C@H](N)[C@@H](O)[C@@H]1O [neomycin B, reference compound]
Enhancement of cellular uptake upon guanidinylation (10T½ cells [1]): approximately 20 fold

tobra-BODIPY hydrochloride [Tobra-BODIPY (1)]
Mean Fluorescence Intensities of Treated Cells According to FACS, 10T1/2 (10T½ cells [1]): 60
Cellular uptake (in words) (10T½ cells [1]): poor cellular uptakes
Mean Fluorescence Intensities of Treated Cells According to FACS, HeLa (HeLa cells [2]): 1,000

NC(N)=NC[C@@H]1O[C@H](O[C@H]2[C@@H](O)[C@H](O[C@@H]3[C@H](O)[C@@H](N=C(N)N)C[C@@H](N=C(N)N)[C@H]3O[C@H]3O[C@H](CN=C(N)N)[C@@H](O)[C@H](O)[C@H]3N=C(N)N)O[C@@H]2CO)[C@H](N=C(N)N)[C@@H](O)[C@@H]1O [guanidine-neomycin B (6, guanidino-neomycin B]
Inhibition of the transport of BODIPY-Cys(Arg)9 into cells (10T½ cells [3]; FACS, unlabeled competitor 10-200 μM, in words): effectively inhibits
Affinity to the RRE [4]: substantial affinity

guanidino-tobramycin
Affinity to the RRE [4]: substantial affinity

guanidino-Neo-BODIPY hydrochloride [Guanidino-Neo-BODIPY (4)]
Mean Fluorescence Intensities of Treated Cells According to FACS, 10T1/2 (10T½ cells [1]): 430
Cellular uptake / transport efficiency compared to poly-Arg peptide BODIPY-Cys(Arg)9 (5) (10T½ cells [1]): better cellular uptake
Mean Fluorescence Intensities of Treated Cells According to FACS, HeLa (HeLa cells [2]): 7,900
Cellular localization (HeLa cells [5]): two distinct types of cellular localization

BODIPY-Cys(Arg)9 hydrochloride (CRRRRRRRRR; N-acetyl, C-amide, BODIPY on Cys) [BODIPY-Cys (Arg)9 (5), poly-Arg transduction peptide ace-…-am labelled with BODIPY on Cys]
Mean Fluorescence Intensities of Treated Cells According to FACS, 10T1/2 (10T½ cells [1]): 280
Mean Fluorescence Intensities of Treated Cells According to FACS, HeLa (HeLa cells [2]): 2,000
Mean Fluorescence Intensity, 10T1/2, in presence of 10 μM (6) (10T½ cells [3]; 0.5 μM (5) + 10 μM guanidino-neomycin B (6), 1 hr): 110
Mean Fluorescence Intensity, 10T1/2, in presence of 50 μM (6) (10T½ cells [3]; 0.5 μM (5) + 50 μM guanidino-neomycin B (6), 1 hr): 90
Mean Fluorescence Intensity, 10T1/2, in presence of 200 μM (6) (10T½ cells [3]; 0.5 μM (5) + 200 μM guanidino-neomycin B (6), 1 hr): 70
